Data set [1] can be described thus: Precipitation in time-kill media. The conditions noted are these: time-kill experiment against P. aeruginosa, MHB II. It is filed as physicochemical. The procedure:
Time kill assays were performed in triplicate, meaning that every value is the average of three different samplings. Time–kill kinetic assays were performed using P. aeruginosa (26314), MRSP E104 and/or MRSP C22963 to determine the cell killing activity of B1 and two of its most promising analogues (compounds 23 and 26) based on prior antimicrobial susceptibility testing. The method reported by Blondeau et al.[63] was followed with minor modifications. Briefly, the assay was performed in MHB II with concentrations corresponding to 0.5, 1, 2 and 4 times the MIC of the strain. After 0, 15, 30, 60, 120, 180 and 300 min of growth, 100 μL aliquots were collected and 10-fold serially diluted. Twenty μL of cell suspension from each dilution were spotted in triplicate on blood agar plates followed by 16–18 h incubation at 37 °C and determination of colony forming units (CFU).

The next data set has as its system human red blood cells. On the set-up: method as in PMID 29534469. The conditions noted are these: at 150 µM; cited from earlier work.
The test system of data set [2] is membrane potential of MRSP E104. Kind of data set: DiSC3(5) fluorescence-based membrane potential study. Format: cell-based, Staphylococcus pseudintermedius. The conditions noted are these: MRSP E104, sub-inhibitory concentration 1.5 µg/mL. How it is done:
Freshly sub-cultured E104 cells were labelled with 1 µM 3,3-Dipropylthiadicarbocyanine iodide [DiSC3(5)] (Sigma) in MHB II. The fluorescence spectra of labelled cells were plotted in the LS50B luminescence spectrometer (PerkinElmer) at excitation/emission wavelengths 546 nm/573 nm using time drive application of FLWINLAB software. After reading an initial stable emission spectra of DiSC3(5), labelled cells were treated with B1 or nisin or protonophore CCCP at 1, 1.5 and 1.25 µg/ml, respectively and the change of fluorescence over time was recorded. The increment of DiSC3(5) fluorescence upon addition of antimicrobials or CCCP (FUafter-treatment – FUbefore-treatment) was plotted. This experiment was performed twice and each time with two technical replicates.

The subject of data set [3] is cell wall synthesis in MRSP E104. In words: Macromolecule biosynthesis rate, cell wall (3H-glucosamine). Format: cell-based, Staphylococcus pseudintermedius. The conditions noted are these: MRSP E104, 1.5 µg/mL, 20 min. The procedure:
Macromolecule biosynthesis rate was measured in MRSP E104 following a protocol adapted from Ling et al.[65]. Briefly, E104 overnight culture was sub-cultured 1:100 in MHB II and grown up to OD 0.2 at 600 nm. Cells were pelleted down by centrifugation and resuspended in fresh medium followed by incubation for 20 min with B1 or nisin at 1.5 µg/ml and 1.25 µg/ml, respectively, and radiolabeled precursor: (50µCi) 3H-Thymidine (PerkinElmer) and (5µCi) 3H-glucosamine hydrochloride per ml for DNA and cell wall, respectively. A positive control without antimicrobial was maintained. After incubation, samples were precipitated with equal volume of cold 30% TCA (Sigma) on ice. Precipitates were filtered on a membrane filter and subsequently subjected to two washes of cold 15% TCA and two washes of cold water using vacuum manifold. Subsequently, filters were air dried overnight and then transferred to 10 ml scintillation vials. Finally, scintillation fluid (3 ml) was added to each vial and ^3H count was taken in Beckman Coulter LS6500 liquid scintillation counter for one minute. The radioactive counts of the control samples were considered to have 100% precursor incorporation and macromolecule synthesis. The percentage rates of the antimicrobial-exposed samples were calculated accordingly. Each experiment was performed with replicates and the average rates of incorporation were plotted.

The subject of data set [4] is MRSP E104. Kind of data set: High-throughput growth curves (BioScreen). Format: cell-based, Staphylococcus pseudintermedius. The conditions noted are these: 3 µg/ml; decrease of OD over time. The procedure: The effects of B1 on the growth of a reference MRSP strain (ST71, E104) were evaluated using BioScreen (Oy Growth Curves Ab LTd, Finland). A well characterized antimicrobial peptide, Nisin, was used as a positive control. […] The OD600 of each micro-culture was measured and recorded every 15 min after a 5 second pause of shaking in automatic mode. The recorded ODs were plotted against time to prepare the growth curves. The assay was performed with technical and biological replicates, and one representative result was presented.

The subject of a further data set is Pronase. The conditions noted are these: cited from earlier work.
The conditions of data set [5]: topical delivery from cream formulation; cited from earlier work.
Data set [6] concerns MRSP E104. In words: Flow cytometry (TO/PI) of antimicrobial-exposed cells. Format: cell-based, Staphylococcus pseudintermedius. The conditions noted are these: MRSP E104, lysis concentration (1x MIC), 3 µg/ml, 1 h. How it is done: Freshly grown cultures (OD 0.2 at 600 nm) of MRSP E104 were exposed to 3 µg/ml of B1 or 2.5 µg/ml of nisin for 1 h and diluted 1:10 in flow cytometry analysis buffer (PBS supplemented with 1 mM EDTA, 0.01% Tween 20 and filtered by 0.22 µm membrane). Diluted cells were stained with 420 nM thiazole orange (TO, Sigma) and 48 µM propidium iodide (PI, Sigma) and analysed using BD ACCURI C6 flow cytometer (BD Biosciences). Unstained cells were used as negative control. Finally, the differentially labelled bacterial populations in antimicrobial-exposed cultures were plotted under FL3(red)/FL1(green) axis using the instrument’s software and categorised into four different conditions: P1 (unstained), P2 (dead cells), P3 (injured cells) and P4 (live cells).
For orientation: In flow cytometry, cells or beads pass a laser one at a time.

The next data set deals with MSSA (ATCC 29213). Format: cell-based, Staphylococcus aureus. Conditions: ATCC 29213, 18 h. In outline: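 Broth microdilution per CLSI M31-A3 on canine clinical isolates plus reference MRSP C22963, MSSA and P. aeruginosa 26314; 5 × 10^5 CFU/mL in MHB II with two-fold dilutions from 1 to 64 µg/ml. MIC = lowest concentration without visible growth after 18 hours at 37 °C; triplicates on two days.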

For a further data set, the system named is P. aeruginosa isolates. In words: MIC, panel of 50 canine P. aeruginosa isolates. Format: cell-based, Pseudomonas aeruginosa. The procedure:
Activity of B1 was tested on 50P. aeruginosa isolates and 57S. pseudintermedius isolates (including 7 MRSP) that had been isolated in the diagnostic laboratory Sund Vet Diagnostik (University of Copenhagen) from various infections in dogs between 2009 and 2011. Representative MRSP (C22963), MSSA, and P. aeruginosa (26314) were used for testing the first set of B1 analogues.
MIC determination was performed by broth microdilution according to the Clinical and Laboratory Standard Institute (CLSI, M31-A3, 2008)[62]. In brief, each bacterial strain was diluted to concentration of 5 × 10^5 CFU/mL in Mueller Hinton broth II (MHB II) media (Oxoid) and added to a two-fold serial dilution of peptides and peptide-peptoid hybrids concentrations ranging from 1 to 64 µg/ml in 96-well plates (Nunc Internationals, Rochester, NY). The MICs were determined as a lowest concentration showing no visible growth after incubation for 18 hours at 37 °C. Experiments were performed in triplicates on two different days.

Each structure is given as a SMILES string. Square brackets hold non-standard residues; d marks the D form. Peptide text beside a SMILES is read from it. N(1-naphthylmethyl)Gly = O=C(O)CNCc1cccc2ccccc12; d1Nal = N[C@H](Cc1cccc2ccccc12)C(=O)O; N(4-MeBn)Gly = Cc1ccc(CNCC(=O)O)cc1; dNle = CCCC[C@@H](N)C(=O)O; NBuGly = CCCCNCC(=O)O

Turning to `CCCC[C@@H](NC(=O)[C@H](CCCCN)NC(=O)[C@H](CCCCN)NC(=O)[C@@H](N)CCCCN)C(=O)N[C@H](Cc1cccc2ccccc12)C(=O)N[C@H](Cc1ccccc1)C(=O)N[C@H](Cc1cccc2ccccc12)C(N)=O` [Compound 26, Lys-Lys-Lys-nle-(1-Nal)ala-phe-(1-Nal)ala] (H-KKK[dNle][d1Nal][dF][d1Nal]-NH2; N-terminus assumed), the “precipitation in the media” value in [1] is “precipitated after 15 min”.

In the case of `CCCCN(CC(=O)N[C@@H](CCCCN)C(=O)N(CC(=O)N(CC(=O)N(CC(N)=O)Cc1cccc2ccccc12)Cc1ccc(C)cc1)Cc1cccc2ccccc12)C(=O)[C@H](CCCCN)NC(=O)[C@@H](N)CCCCN` [B1, Lys-Lys-(NBu)Gly-Lys-(N1-Nal)Gly-(N4-MeBn)Gly-(N1-Nal)Gly] (H-KK[NBuGly]K[N(1-naphthylmethyl)Gly][N(4-MeBn)Gly][N(1-naphthylmethyl)Gly]-NH2), in the data set with human red blood cells, the hemolytic activity is recorded as 32%. The “membrane potential, DiSC3(5) fluorescence emission” value in data set [2] is on record as “significant membrane depolarization”. The “reduction in cell wall synthesis” value in data set [3] stood at 20%. Further, the “growth curve effect on MRSP E104” value in the data set on MRSP E104 [4] was “cell lysis”. Also, the “degradation by protease mix Pronase” value with Pronase is on record as 38%. Besides, in [5], the “skin penetration after administration” value is “no skin penetration”. For the same compound, in the data set on MRSP E104 [6], the “flow cytometry PI/TO staining” value is “Cell death”. Moreover, the “Minimum Inhibitory Concentration MSSA (ATCC 29213)” value with MSSA (ATCC 29213) is 8 to 16 µg/mL. Besides, in the data set with P. aeruginosa isolates, the “MICs against a panel of 50 P. aeruginosa isolates” value was in the range of 8 to 16 µg/mL.
